Assay [1] deals with T1, indoleamine 2, 3-dioxygenase (IDO1) (Homo sapiens, UniProt P14902). The experiment in a line: PBMC IDOi assay (kynurenine detection by mass spectrometry). Type of assay: cell-based. The conditions noted are these: IFN-γ and LPS stimulated human PBMC, 2 days. As to the method:
(§1) Compounds of the present invention were tested via high-throughput cellular assays utilizing detection of kynurenine via mass spectrometry and cytotoxicity as end-points. For the mass spectrometry and cytotoxicity assays, human peripheral blood mononuclear cells (PBMC) (PB003F; AllCells®, Alameda, Calif.) were stimulated with human interferon-γ (IFN-γ) (Sigma-Aldrich Corporation, St. Louis, Mo.) and lipopolysaccharide from Salmonella minnesota (LPS) (Invivogen, San Diego, Calif.) to induce the expression of indoleamine 2, 3-dioxygenase (IDO1). Compounds with IDO1 inhibitory properties decreased the amount of kynurenine produced by the cells via the tryptophan catabolic pathway. Cellular toxicity due to the effect of compound treatment was measured using CellTiter-Glo® reagent (CTG) (Promega Corporation, Madison, Wis.), which is based on luminescent detection of ATP, an indicator of metabolically active cells.
(§2) In preparation for the assays, test compounds were serially diluted 3-fold in DMSO from a typical top concentration of 5 mM and plated at 0.5 μL in 384-well, polystyrene, clear bottom, tissue culture treated plates with lids (Greiner Bio-One, Kremsmünster, Austria) to generate 11-point dose response curves. Low control wells (0% kynurenine or 100% cytotoxicity) contained either 0.5 μL of DMSO in the presence of unstimulated (−IFN-γ/−LPS) PBMCs for the mass spectrometry assay or 0.5 μL of DMSO in the absence of cells for the cytotoxicity assay, and high control wells (100% kynurenine or 0% cytotoxicity) contained 0.5 μL of DMSO in the presence of stimulated (+IFN-γ/+LPS) PBMCs for both the mass spectrometry and cytotoxicity assays.
Frozen stocks of PBMCs were washed and recovered in RPMI 1640 medium (Thermo Fisher Scientific, Inc., Waltham, Mass.) supplemented with 10% v/v heat-inactivated fetal bovine serum (FBS) (Thermo Fisher Scientific, Inc., Waltham, Mass.), and 1× penicillin-streptomycin antibiotic solution (Thermo Fisher Scientific, Inc., Waltham, Mass.). The cells were diluted to 1,000,000 cells/mL in the supplemented RPMI 1640 medium. 50 μL of either the cell suspension, for the mass spectrometry assay, or medium alone, for the cytotoxicity assay, were added to the low control wells, on the previously prepared 384-well compound plates, resulting in 50,000 cells/well or 0 cells/well respectively. IFN-γ and LPS were added to the remaining cell suspension at final concentrations of 100 ng/ml and 50 ng/ml respectively, and 50 μL of the stimulated cells were added to all remaining wells on the 384-well compound plates. The plates, with lids, were then placed in a 37° C., 5% CO2 humidified incubator for 2 days.
(§3) Following incubation, the 384-well plates were removed from the incubator and allowed to equilibrate to room temperature for 30 minutes. For the cytotoxicity assay, CellTiter-Glo® was prepared according to the manufacturer's instructions, and 40 μL were added to each plate well. After a twenty minute incubation at room temperature, luminescence was read on an EnVision® Multilabel Reader (PerkinElmer Inc., Waltham, Mass.). For the mass spectrometry assay, 10 μL of supernatant from each well of the compound-treated plates were added to 40 μL of acetonitrile, containing 10 μM of an internal standard for normalization, in 384-well, polypropylene, V-bottom plates (Greiner Bio-One, Kremsmünster, Austria) to extract the organic analytes. Following centrifugation at 2000 rpm for 10 minutes, 10 μL from each well of the acetonitrile extraction plates were added to 90 μL of sterile, distilled H2O in 384-well, polypropylene, V-bottom plates for analysis of kynurenine and the internal standard on the RapidFire 300 (Agilent Technologies, Santa Clara, Calif.) and 4000 QTRAP MS (SCIEX, Framingham, Mass.). MS data were integrated using Agilent Technologies' RapidFire Integrator software, and data were normalized for analysis as a ratio of kynurenine to the internal standard. […]

Assay [2] has as its target T1, indoleamine 2, 3-dioxygenase (IDO1). In words: HeLa IDOi assay (kynurenine detection by mass spectrometry). Type of assay: cell-based. The arrangement: human epithelial HeLa cells (CCL-2; host or cells: HeLa cells stimulated with human IFN-γ. To be noted: IFN-γ stimulated human epithelial HeLa cells, 2 days. As to the method:
as §1, with “epithelial HeLa” for “peripheral blood mononuclear”, “(CCL-2; ATCC®, Manassas, Va.)” for “(PBMC) (PB003F; AllCells®, Alameda, Calif.)”, “Mo.)” for “Mo.) and lipopolysaccharide from Salmonella minnesota (LPS) (Invivogen, San Diego, Calif.)”
as §2, with “(−IFN-γ) HeLa cells” for “(−IFN-γ/−LPS) PBMCs”, “(+IFN-γ) HeLa cells” for “(+IFN-γ/+LPS) PBMCs”
Frozen stocks of HeLa cells were washed and recovered in DMEM high glucose medium with HEPES (Thermo Fisher Scientific, Inc., Waltham, Mass.) supplemented with 10% v/v certified fetal bovine serum (FBS) (Thermo Fisher Scientific, Inc., Waltham, Mass.), and 1× penicillin-streptomycin antibiotic solution (Thermo Fisher Scientific, Inc., Waltham, Mass.). The cells were diluted to 100,000 cells/mL in the supplemented DMEM medium. 50 μL of either the cell suspension, for the mass spectrometry assay, or medium alone, for the cytotoxicity assay, were added to the low control wells, on the previously prepared 384-well compound plates, resulting in 5,000 cells/well or 0 cells/well respectively. IFN-γ was added to the remaining cell suspension at a final concentration of 10 nM, and 50 μL of the stimulated cells were added to all remaining wells on the 384-well compound plates. The plates, with lids, were then placed in a 37° C., 5% CO2 humidified incubator for 2 days.
as §3, with “instructions, and 10 μL were” for “instructions, and 40 μL were”

T1 sequence (P14902 whole entry): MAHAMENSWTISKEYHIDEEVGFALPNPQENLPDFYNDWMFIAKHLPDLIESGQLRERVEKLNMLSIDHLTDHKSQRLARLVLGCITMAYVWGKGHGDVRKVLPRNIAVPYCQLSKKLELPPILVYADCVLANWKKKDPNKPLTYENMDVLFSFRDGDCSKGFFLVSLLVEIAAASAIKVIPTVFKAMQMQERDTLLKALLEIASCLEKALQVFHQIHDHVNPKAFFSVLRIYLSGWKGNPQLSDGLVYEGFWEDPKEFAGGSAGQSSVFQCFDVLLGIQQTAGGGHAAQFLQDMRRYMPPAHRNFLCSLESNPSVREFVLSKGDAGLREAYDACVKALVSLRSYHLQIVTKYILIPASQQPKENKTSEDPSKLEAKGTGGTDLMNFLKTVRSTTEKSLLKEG

`CC(C)CN(c1ccc(C(C)CC(=O)O)cc1NCc1nccs1)C1CCCCC1` (stereo not drawn) [Example 21, 3-(4-(cyclohexyl(isobutyl)amino)-3-((thiazol-2-ylmethyl)amino)phenyl)butanoic acid]: the results for the concentration giving a half-maximal response (EC50) in assay [1] and in assay [2] were 251 nM and 501 nM, respectively.

Take `CC(C)CN(c1ccc(C(C)CC(=O)O)cc1NCc1cncs1)C1CCCCC1` (stereo not drawn) [Example 22, 3-(4-(cyclohexyl(isobutyl)amino)-3-((thiazol-5-ylmethyl)amino)phenyl)butanoic acid]: the EC50 in assay [1] is 100 nM; in assay [2] it was 200 nM.

Turning to `Cc1ccccc1CNc1cc(C(C)CC(=O)O)ccc1N(CC(C)C)C1CCCCC1` (stereo not drawn) [Example 23, 3-(4-(cyclohexyl(isobutyl)amino)-3-((2-methylbenzyl)amino)phenyl)butanoic acid], the results for the EC50 in assay [1] and in assay [2] were 200 nM and 316 nM, respectively.

For the compound `CC(C)CN(CC(C)C)c1ccc(C(C)CC(=O)O)cc1Nc1nc(Cl)ns1` (stereo not drawn) [Example 25, 3-(3-((3-chloro-1,2,4-thiadiazol-5-yl)amino)-4-(diisobutylamino)phenyl)butanoic acid], the EC50 is 25.1 nM in assay [1] and 31.6 nM in assay [2].

As to `CC(C)CN(c1ccc(C(C)CC(=O)O)cc1Nc1nnc(C(F)(F)F)s1)C1CCCCC1` (stereo not drawn) [Example 29, 3-(4-(cyclohexyl(isobutyl)amino)-3-((5-(trifluoromethyl)-1,3,4-thiadiazol-2-yl)amino)phenyl)butanoic acid], the EC50 in assay [1] was 0.316 nM; in assay [2], 3.16 nM.

Turning to `CC(C)CN(CC(C)C)c1ccc(C(C)CC(=O)O)cc1Nc1nc(C(F)(F)F)ns1` (stereo not drawn) [Example 34, 3-(4-(diisobutylamino)-3-((3-(trifluoromethyl)-1,2,4-thiadiazol-5-yl)amino)phenyl)butanoic acid], the EC50 is 5.01 nM in assay [1] and 3.98 nM in assay [2].

`CC(C)CN(c1ccc([C@@H](C)CC(=O)O)cc1Nc1nc(C(F)(F)F)ns1)C1CCCCC1` [Example 37, (S)-3-(4-(cyclohexyl(isobutyl)amino)-3-((3-(trifluoromethyl)-1,2,4-thiadiazol-5-yl)amino)phenyl)butanoic acid]: the EC50 in assay [1] was 1 nM; in assay [2], 2 nM.

Turning to `CC(C)CN(c1ccc([C@H](C)CC(=O)O)cc1Nc1nc(C(F)(F)F)ns1)C1CCCCC1` [Example 38, (R)-3-(4-(cyclohexyl(isobutyl)amino)-3-((3-(trifluoromethyl)-1,2,4-thiadiazol-5-yl)amino)phenyl)butanoic acid], the EC50 in assay [1] was 1 nM; in assay [2], 3.98 nM.

For the compound `CC(C)CN(c1ccc([C@@H](C)CC(=O)O)cc1Nc1nc(Cl)ns1)C1CCCCC1` [Example 39, (S)-3-(3-((3-chloro-1,2,4-thiadiazol-5-yl)amino)-4-(cyclohexyl(isobutyl)amino)phenyl)butanoic acid], the results for the half-maximal effective concentration (EC50) in assay [1] and in assay [2] were 1.26 nM and 12.6 nM, respectively.

In the case of `CC(C)CN(c1ccc([C@H](C)CC(=O)O)cc1Nc1nc(Cl)ns1)C1CCCCC1` [Example 40, (R)-3-(3-((3-chloro-1,2,4-thiadiazol-5-yl)amino)-4-(cyclohexyl(isobutyl)amino)phenyl)butanoic acid], the EC50 in assay [1] is 0.631 nM; in assay [2], 6.31 nM.

Turning to `CC(C)CN(CC(C)C)c1ccc([C@@H](C)CC(=O)O)cc1Nc1nc(Cl)ns1` [Example 41, (S)-3-(3-((3-chloro-1,2,4-thiadiazol-5-yl)amino)-4-(diisobutylamino)phenyl)butanoic acid], the results for the EC50 in assay [1] and in assay [2] were 10 nM and 63.1 nM, respectively.

Regarding `CC(C)CN(CC(C)C)c1ccc([C@H](C)CC(=O)O)cc1Nc1nc(Cl)ns1` [Example 42, (R)-3-(3-((3-chloro-1,2,4-thiadiazol-5-yl)amino)-4-(diisobutylamino)phenyl)butanoic acid], the EC50 in assay [1] is 7.94 nM; in assay [2] it was 39.8 nM.

`Cc1nnc(Nc2cc(C(C)CC(=O)O)ccc2N(CC(C)C)CC(C)C)[nH]1` (stereo not drawn) [Example 47, 3-(4-(diisobutylamino)-3-((5-methyl-4H-1,2,4-triazol-3-yl)amino)phenyl)butanoic acid]: the EC50 in assay [1] is 200 nM; in assay [2], 158 nM.

`CC(C)CN(CC(C)C)c1ccc(C(C)CC(=O)O)cc1Nc1nnc(C2CC2)[nH]1` (stereo not drawn) [Example 48, 3-(3-((5-cyclopropyl-4H-1,2,4-triazol-3-yl)amino)-4-(diisobutylamino)phenyl)butanoic acid]: the EC50 in assay [1] was 25.1 nM; in assay [2], 63.1 nM.

Consider `CC(C)CN(c1ccc([C@H](C)CC(=O)O)cc1Nc1nc(C(F)(F)F)cs1)C1CCCCC1` [Example 49, (R)-3-(4-(cyclohexyl(isobutyl)amino)-3-((4-(trifluoromethyl)thiazol-2-yl)amino)phenyl)butanoic acid], for which the results for the EC50 in assay [1] and in assay [2] were 0.794 nM and 3.16 nM, respectively.

The EC50 is the midpoint of the concentration-response curve.

(Values after US10472336B2, “Modulators of indoleamine 2,3-dioxygenase” (GlaxoSmithKline Intellectual Property (No.2) Limited, priority 2015, dated 2019).)
